Reference: patent US6087358A (priority 1997, dated 2000)
Converted amounts (≈) assume the structure as drawn. Like-named read-outs stand apart in the source and are kept apart here.

Assays:
[1] = tested on: Mycobacterium bovis BCG (recombinant strain); test: microbe, parasite or virus in culture; type: cell-based; details: Mycobacterium tuberculosis variant bovis BCG, BCG, 144 h; 6 days 37° C.; read-out: MIC, column A, 3(S) compounds
[2] = tested on: Mycobacterium tuberculosis H37Rv (sensitive strain); test: MIC as determined by the BACTEC method, sensitive strain; type: cell-based; details: M. tuberculosis H37Rv (sensitive strain), read-out: MIC, column B, 3(S) compounds
[3] = tested on: Clostridium difficile ATCC 17857; test: In vitro inhibition of Clostridium difficile (Oxyrase broth microdilution MIC); type: cell-based; details: Clostridioides difficile, ATCC17857; Clostridium difficile ATCC 17857, Oxyrase broth; read-out: MIC, column D, 3(S) compounds
[4] = tested on: Helicobacter pylori Strain 4187E; test: In vivo activity against Helicobacter pylori strain 4187E in mice; set-up: species or system in outbred female white mice; details: oral gavage, four days
Description: Outbred female white mice (20 grams) were infected by oral gavage with 10^7 -10^8 colony forming units of H. pylori strain 4187E (originally isolated from a patient with a duodenal ulcer). […] Treatment continued for four days. Clarithromycin, administered at the same concentration and for the same duration, was included as a positive control. One group of animals also received an equal volume of formulation vehicle alone, to provide a negative control.
Five days after cessation of treatment, all animals were sacrificed, the stomachs were removed, opened, and the contents washed out. The entire mucosal surface was then spread evenly over the surface of an agar plate containing antibiotics appropriate for the prevention of growth of microorganisms other than Helicobacter spp. After seven days incubation under microaeropilic conditions at 37° C., culture plates were evaluated for bacterial growth.

[5] = tested on: Helicobacter pylori; test: In vitro inhibition of Helicobacter pylori (broth microdilution MIC); details: for MIC: Helicobacter pylori
[6] = tested on: Mycobacterium tuberculosis (rMTB); test: In vivo antimycobacterial activity against M. tuberculosis (rMTB) in spleens of mice; set-up: species or system Mycobacterium tuberculosis Erdman, in female BALB/c mice; details: 25 mg/kg daily oral gavage, CM-2, 10 days, control 422,866 (PA-824, 636, 1297) or 362,274 (others)
[7] = tested on: Mycobacterium tuberculosis (rMTB); test: In vivo antimycobacterial activity against M. tuberculosis (rMTB) in lungs of mice; set-up: species or system Mycobacterium tuberculosis Erdman, in female BALB/c mice; details: 25 mg/kg daily oral gavage, CM-2, 10 days, control 117,258 (PA-824, 636, 1297) or 22,751 (others)
[8] = tested on: Helicobacter felis; test: In vivo activity against Helicobacter felis in mice (urease test of stomach biopsy); set-up: species or system in female CD-1 mice; details: 50 mg/kg three times daily oral gavage, CM-2, four days; vehicle and untreated 100
Method: Female CD-1 mice weighing 30 grams were infected by oral gavage with 10^8 -10^9 colony forming units of H. felis. This infection process was repeated two, and four days, thereafter. Colonization of the stomach was allowed to occur over a seven day period. Animals were segregated into groups of five, and were treated three times daily by oral gavage with 50 mg/kg of test drugs prepared in the CM-2 formulation vehicle (Example 52). Treatment continued for four days. One group of animals received an equal volume of formulation vehicle alone, to ensure that the vehicle had no effect on the Helicobacter infection. A separate untreated control group was also included.
All animals were then sacrificed, the stomachs were removed, opened, and the contents washed out. A five millimeter diameter biopsy was removed, and transferred to a urease test solution containing a pH-sensitive dye, which was then incubated at 37° C. incubator for 24 hours. A blue or purple coloration in this test solution signifies a positive reaction, indicating the continued presence of viable Helicobacter bacteria; a negative result is indicated by a yellow coloration. Viable Helicobacter bacteria produce a urease enzyme which converts urea, of which there is an abundant supply in the stomach (from saliva and gastric juices), into bicarbonate and ammonia, which are strong bases. This mechanism is considered to provide conditions more amenable to the survival of Helicobacter in the otherwise acidic conditions prevalent in the stomach.

[9] = 72 h, read-out: MIC against Helicobacter pylori, strain B40, Met-S, Clar-S (Table 5B)
[10] = 72 h, read-out: MIC against Helicobacter pylori, strain B76, Met-R, Clar-S (Table 5B)
[11] = 72 h, read-out: MIC against Helicobacter pylori, strain C1649, Met-R, Clar-R (Table 5B)
[12] = 72 h, read-out: MIC against Helicobacter pylori, strain C11403, Met-S, Clar-R (Table 5B)
[13] = 72 h, read-out: MIC against Helicobacter pylori, strain C19765 (Table 5B)
[14] = 72 h, read-out: MIC against Helicobacter pylori, strain RD26, Met-S, Clar-S (Table 5B)
[15] = 72 h, read-out: MIC against Helicobacter pylori, strain rd26, Met-S, Clar-S (Table 5B)
[16] = ATCC43504, 72 h, read-out: MIC against Helicobacter pylori, strain ATCC 43504, Met-R, Clar-S (Table 5B)
[17] = ATCC43526, 72 h, read-out: MIC against Helicobacter pylori, strain ATCC 43526, Met-R, Clar-S (Table 5B)
[18] = ATCC43579, 72 h, read-out: MIC against Helicobacter pylori, strain ATCC 43579, Met-S, Clar-S (Table 5B)
[19] = ATCC43629, 72 h, read-out: MIC against Helicobacter pylori, strain ATCC 43629, Met-S, Clar-S (Table 5B)

SMILES	MIC [1] [µg/mL]	MIC [3] [µg/mL]	% Eradication ([4]; twice daily 5 mg/kg) [%]	% Eradication ([4]; twice daily 50 mg/kg) [%]	MIC [5, 9] [µg/mL]	MIC [5, 10] [µg/mL]	MIC [5, 11] [µg/mL]	MIC [5, 12] [µg/mL]	MIC [5, 13] [µg/mL]	MIC [5, 14] [µg/mL]	MIC [5, 15] [µg/mL]	MIC [5, 16] [µg/mL]	MIC [5, 17] [µg/mL]	MIC [5, 18] [µg/mL]	MIC [5, 19] [µg/mL]	Average RLUs, M. tuberculosis (rMTB) in spleens [6]	Average RLUs, M. tuberculosis (rMTB) in lungs [7]	% Survival [8] [%]	further results
CC(C)=CCC/C(C)=C/CO[C@@H]1COc2nc([N+](=O)[O-])cn2C1 [PA-626]	0.5 (≈ 1.56 µM)	0.8 (≈ 2.49 µM)	–	–	–	–	–	–	–	–	–	–	–	–	–	–	–	–	MIC [2]: 0.13 µg/mL (≈ 0.405 µM)
CC[C@H]1OC(=O)[C@H](C)[C@@H](O[C@H]2C[C@@](C)(OC)[C@@H](O)[C@H](C)O2)[C@H](C)[C@@H](O[C@@H]2O[C@H](C)C[C@H](N(C)C)[C@H]2O)[C@](C)(OC)C[C@@H](C)C(=O)[C@H](C)[C@@H](O)[C@]1(C)O [Clarithromycin, reference compound]	–	–	0	100	< 0.015	< 0.015	> 4	4 (≈ 5.35 µM)	< 0.015	0.03 (≈ 0.0401 µM)	0.03 (≈ 0.0401 µM)	0.03 (≈ 0.0401 µM)	< 0.015	< 0.015	0.03 (≈ 0.0401 µM)	–	–	–	MICs of control drugs relative to expected values ([5]; H. pylori ATCC 43): within the expected values; MIC ([5]; 72 h, read-out: MIC against Helicobacter pylori, strain 17 (Table 5A)): 0.016 µg/mL (≈ 0.0214 µM); MIC ([5]; 72 h, read-out: MIC against Helicobacter pylori, strain 19 (Table 5A)): 8 µg/mL (≈ 10.7 µM); MIC ([5]; 72 h, read-out: MIC against Helicobacter pylori, strain 20 (Table 5A)): 8 µg/mL (≈ 10.7 µM); MIC ([5]; 72 h, read-out: MIC against Helicobacter pylori, strain 40 (Table 5A)): 0.016 µg/mL (≈ 0.0214 µM); MIC ([5]; 72 h, read-out: MIC against Helicobacter pylori, strain 43 (Table 5A)): 0.008 µg/mL (≈ 0.0107 µM); MIC ([5]; 72 h, read-out: MIC against Helicobacter pylori, strain 76 (Table 5A)): 0.032 µg/mL (≈ 0.0428 µM); MIC ([5]; ATCC43504, 72 h, read-out: MIC against Helicobacter pylori, strain ATCC 43504 (Table 5A)): 0.06 µg/mL (≈ 0.0802 µM)
O=C(N[C@@H]1COc2nc([N+](=O)[O-])cn2C1)OCc1ccc(OC(F)(F)F)cc1 [PA-1343]	0.015 (≈ 0.0373 µM)	–	–	–	0.8 (≈ 1.99 µM)	12 (≈ 29.8 µM)	12 (≈ 29.8 µM)	1.5 (≈ 3.73 µM)	12 (≈ 29.8 µM)	3 (≈ 7.46 µM)	2 (≈ 4.97 µM)	10 (≈ 24.9 µM)	12 (≈ 29.8 µM)	1.5 (≈ 3.73 µM)	3 (≈ 7.46 µM)	51,928 RLUs	606 RLUs	00	–
O=C(Nc1ccc(C(F)(F)F)cc1)O[C@@H]1COc2nc([N+](=O)[O-])cn2C1 [PA-1327, 4-(Trifluoromethyl)phenyl Carbamate of 3S Hydroxy-6-nitro-2H-3,4-dihydo-[2-1b]imidazopyran]	0.25 (≈ 0.672 µM)	–	–	–	–	–	–	–	–	–	–	–	–	–	–	68,362 RLUs	1,561 RLUs	–	–
O=C(Nc1ccc(OC(F)(F)F)cc1)O[C@@H]1COc2nc([N+](=O)[O-])cn2C1 [PA-1297, 4-(Trifluoromethoxy)phenyl Carbamate of 3S Hydroxy-6-nitro-2H-3,4-dihydo-[2-1b]imidazopyran]	0.015 (≈ 0.0386 µM)	0.78 (≈ 2.01 µM)	0	0	–	–	–	–	–	–	–	–	–	–	–	66,473 RLUs	3,354 RLUs	100	% Eradication ([4]; once daily 25 mg/kg): 0%
